System: HBV
Test: HBV-DNA antiviral assay using HepG2.117 cells (intracellular HBV DNA by qPCR)
Assay type: cell-based, genotype D HBV
Settings: HBV DNA inhibition, 3 days incubation, 2% DMSO
How it was run: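 HepG2.117 cells (stable genotype D HBV, Tet-off) seeded without doxycycline, treated next day with 9-point 4-fold dilutions in 2% DMSO for 3 days at 37° C. Intracellular HBV DNA quantified by qPCR against a standard curve; viability by CellTiter-Glo ATP. EC50, EC90, CC50 from variable-slope dose-response fits versus DMSO control.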

| SMILES | EC50 [nM] |
| --- | --- |
| CNC(=O)c1ccc(-n2c(=O)c3c(n4ncc(Cc5ccccc5)c24)CN(C(=O)c2ccc(Br)c(C(F)(F)F)c2)CC3)cc1 [Compound 4, 4-[5-benzyl-12-[4-bromo-3-(trifluoromethyl)benzoyl]-8-oxo-2,3,7,12-tetrazacyclo[7.4.0.0^2,6]trideca-1(9),3,5-trien-7-yl]-N-methyl-benzamide] | < 50 |

Same assay, conditions: Hepatitis B virus, 72 h, HBV DNA inhibition, 3 days incubation, 2% DMSO

| SMILES | EC50 [nM] |
| --- | --- |
| C[C@@H]1Cc2c(n3ncc(Cc4ccccc4)c3n(-c3ccc(-n4nnnc4C(F)(F)F)cc3)c2=O)CN1C(=O)c1ccc(Br)c(C(F)(F)F)c1 (stereo in doubt) [Compound 92a, rac-(11R)-5-benzyl-12-[4-bromo-3-(trifluoromethyl)benzoyl]-11-methyl-7-[4-[5-(trifluoromethyl)tetrazol-1-yl]phenyl]-2,3,7,12-tetrazatricyclo[7.4.0.0^2,6]trideca-1(9),3,5-trien-8-one] | < 50 |
| Cc1nn[nH]c1-c1cc(-n2c(=O)c3c(n4ncc(Cc5ccccc5)c24)CN(C(=O)c2ccc(Br)c(C(F)(F)F)c2)[C@H](C)C3)nn1C (stereo in doubt) [Compound 83a, rac-(11R)-5-benzyl-12-[4-bromo-3-(trifluoromethyl)benzoyl]-11-methyl-7-[1-methyl-5-(4-methyl-1H-triazol-5-yl)pyrazol-3-yl]-2,3,7,12-tetrazatricyclo[7.4.0.0^2,6]trideca-1(9),3,5-trien-8-one] | < 50 |
| CC(C)Cc1cnn2c3c(c(=O)n(-c4ccc5c(c4)nnn5CCO)c12)C[C@@H](C)N(C(=O)c1ccc(Br)c(C(F)(F)F)c1)C3 (stereo in doubt) [Compound 108a, rac-(11R)-12-[4-bromo-3-(trifluoromethyl)benzoyl]-7-[1-(2-hydroxyethyl)benzotriazol-5-yl]-5-isobutyl-11-methyl-2,3,7,12-tetrazatricyclo[7.4.0.0^2,6]trideca-1(9),3,5-trien-8-one] | < 50 |
| O=C(c1ccc(Br)c(Cl)c1)N1CCc2c(n3ncc(Cc4ccccc4)c3n(-c3ccc(-n4ccc(C(F)(F)F)n4)cc3)c2=O)C1 [Compound 13, 5-benzyl-12-(4-bromo-3-chloro-benzoyl)-7-[4-[3-(trifluoromethyl)pyrazol-1-yl]phenyl]-2,3,7,12-tetrazatricyclo[7.4.0.0^2,6]trideca-1(9),3,5-trien-8-one] | 50 to 500 |
| CNc1nnc2cc(-n3c(=O)c4c(n5ncc(Cc6ccccc6)c35)CN(C(=O)c3ccc(Br)c(C(F)(F)F)c3)CC4)ccn12 [Compound 30, 5-benzyl-12-[4-bromo-3-(trifluoromethyl)benzoyl]-7-[3-(methylamino)-[1,2,4]triazolo[4,3-a]pyridin-7-yl]-2,3,7,12-tetrazatricyclo[7.4.0.0^2,6]trideca-1(9),3,5-trien-8-one] | < 50 |
| CNC(=O)c1ccc(-n2c(=O)c3c(n4ncc(CC(C)C)c24)CN(C(=O)c2ccc(Br)c(C(F)(F)F)c2)[C@@H](C)C3)cc1 (stereo in doubt) [Compound 50b, N-methyl-4-[rac-(11S)-12-[4-bromo-3-(trifluoromethyl)benzoyl]-5-isobutyl-11-methyl-8-oxo-2,3,7,12-tetrazatricyclo[7.4.0.0^2,6]trideca-1(9),3,5-trien-7-yl]benzamide] | 50 to 500 |
| CNC(=O)c1cnc(-n2c(=O)c3c(n4ncc(CC(C)C)c24)CN(C(=O)c2ccc(Br)c(C(F)(F)F)c2)[C@H](C)C3)cn1 (stereo in doubt) [Compound 89a, N-methyl-5-[rac-(11R)-12-[4-bromo-3-(trifluoromethyl)benzoyl]-5-isobutyl-11-methyl-8-oxo-2,3,7,12-tetrazatricyclo[7.4.0.0^2,6]trideca-1(9),3,5-trien-7-yl]pyrazine-2-carboxamide] | < 50 |
| CNC(=O)c1ccc(-n2c(=O)c3c(n4ncc(Cc5ccsc5)c24)CN(C(=O)c2ccc(Br)c(C(F)(F)F)c2)CC3)cc1 [Compound 20, 4-[12-[4-bromo-3-(trifluoromethyl)benzoyl]-8-oxo-5-(3-thienylmethyl)-2,3,7,12-tetrazatricyclo[7.4.0.0^2,6]trideca-1(9),3,5-trien-7-yl]-N-methyl-benzamide] | < 50 |
| Cc1nnc(-c2ccc(-n3c(=O)c4c(n5ncc(Cc6ccccc6)c35)CN(C(=O)c3ccc(Cl)c(C(F)(F)F)c3)[C@@H](C)C4)cc2)[nH]1 (stereo in doubt) [Compound 52b, rac-(11S)-5-benzyl-12-[4-chloro-3-(trifluoromethyl)benzoyl]-11-methyl-7-[4-(5-methyl-4H-1,2,4-triazol-3-yl)phenyl]-2,3,7,12-tetrazatricyclo[7.4.0.0^2,6]trideca-1(9),3,5-trien-8-one] | 50 to 500 |
| CNC(=O)c1cnc(-n2c(=O)c3c(n4ncc(Cc5ccccc5)c24)CN(C(=O)c2ccc(Br)c(C(F)(F)F)c2)[C@@H](C)C3)cn1 (stereo in doubt) [Compound 73b, N-methyl-5-[rac-(11S)-5-benzyl-12-[4-bromo-3-(trifluoromethyl)benzoyl]-11-methyl-8-oxo-2,3,7,12-tetrazatricyclo[7.4.0.0^2,6]trideca-1(9),3,5-trien-7-yl]pyrazine-2-carboxamide] | < 50 |
| CC(C)Cc1cnn2c3c(c(=O)n(-c4ccc(-c5nc(=O)on5C)cc4)c12)C[C@@H](C)N(C(=O)c1ccc(Br)c(C(F)(F)F)c1)C3 (stereo in doubt) [Compound 94a, 2-methyl-3-[4-[rac-(11R)-12-[4-bromo-3-(trifluoromethyl)benzoyl]-5-isobutyl-11-methyl-8-oxo-2,3,7,12-tetrazatricyclo[7.4.0.0^2,6]trideca-1(9),3,5-trien-7-yl]phenyl]-1,2,4-oxadiazol-5-one] | < 50 |
| CNc1n[nH]c2cc(-n3c(=O)c4c(n5ncc(CC6CC6)c35)CN(C(=O)c3ccc(Br)c(C(F)(F)F)c3)CC4)ccc12 [Compound 28, 12-[4-bromo-3-(trifluoromethyl)benzoyl]-5-(cyclopropylmethyl)-7-[3-(methylamino)-1H-indazol-6-yl]-2,3,7,12-tetrazatricyclo[7.4.0.0^2,6]trideca-1(9),3,5-trien-8-one] | < 50 |
| C[C@H]1Cc2c(n3ncc(Cc4ccccc4)c3n(-c3ccc(-c4nncn4C)cc3)c2=O)CN1C(=O)c1ccc(Br)c(C(F)(F)F)c1 (stereo in doubt) [Compound 39b, rac-(11S)-5-benzyl-12-[4-bromo-3-(trifluoromethyl)benzoyl]-11-methyl-7-[4-(4-methyl-1,2,4-triazol-3-yl)phenyl]-2,3,7,12-tetrazatricyclo[7.4.0.0^2,6]trideca-1(9),3,5-trien-8-one] | 50 to 500 |
| Cc1nn[nH]c1-c1ccc(-n2c(=O)c3c(n4ncc(CC(C)C)c24)CN(C(=O)c2ccc(Br)c(C(F)(F)F)c2)[C@@H](C)C3)cc1 (stereo in doubt) [Compound 62b, rac-(11S)-12-[4-bromo-3-(trifluoromethyl)benzoyl]-5-isobutyl-11-methyl-7-[4-(4-methyl-1H-triazol-5-yl)phenyl]-2,3,7,12-tetrazatricyclo[7.4.0.0^2,6]trideca-1(9),3,5-trien-8-one] | 50 to 500 |
| Cc1nnc(-c2ccc(-n3c(=O)c4c(n5ncc(CC(C)C)c35)CN(C(=O)c3ccc(Cl)c(C(F)(F)F)c3)[C@@H](C)C4)cc2)[nH]1 (stereo in doubt) [Compound 65b, rac-(11S)-12-[4-chloro-3-(trifluoromethyl)benzoyl]-5-isobutyl-11-methyl-7-[4-(5-methyl-4H-1,2,4-triazol-3-yl)phenyl]-2,3,7,12-tetrazatricyclo[7.4.0.0^2,6]trideca-1(9),3,5-trien-8-one] | 500 to 5000 |
| CNC(=O)c1ccc(-n2c(=O)c3c(n4ncc(CC5CCC5)c24)CN(C(=O)c2ccc(Br)c(Cl)c2)CC3)cc1 [Compound 14, 4-[12-(4-bromo-3-chloro-benzoyl)-5-(cyclobutylmethyl)-8-oxo-2,3,7,12-tetrazatricyclo[7.4.0.0^2,6]trideca-1(9),3,5-trien-7-yl]-N-methyl-benzamide] | < 50 |
| CNc1n[nH]c2cc(-n3c(=O)c4c(n5ncc(Cc6ccccc6)c35)CN(C(=O)c3ccc(Br)c(C(F)(F)F)c3)[C@@H](C)C4)ccc12 (stereo in doubt) [Compound 43b, rac-(11S)-5-benzyl-12-[4-bromo-3-(trifluoromethyl)benzoyl]-11-methyl-7-[3-(methylamino)-1H-indazol-6-yl]-2,3,7,12-tetrazatricyclo[7.4.0.0^2,6]trideca-1(9),3,5-trien-8-one] | < 50 |
| C[C@H]1Cc2c(n3ncc(Cc4ccccc4)c3n(-c3ccc4c(c3)nnn4C)c2=O)CN1C(=O)c1ccc(Br)c(C(F)(F)F)c1 (stereo in doubt) [Compound 72b, rac-(11S)-5-benzyl-12-[4-bromo-3-(trifluoromethyl)benzoyl]-11-methyl-7-(1-methylbenzotriazol-5-yl)-2,3,7,12-tetrazatricyclo[7.4.0.0^2,6]trideca-1(9),3,5-trien-8-one] | < 50 |
| CNC(=O)c1cnc(-n2c(=O)c3c(n4ncc(Cc5ccccc5)c24)CN(C(=O)c2ccc(Br)c(C(F)(F)F)c2)[C@H](C)C3)cn1 (stereo in doubt) [Compound 73a, N-methyl-5-[rac-(11R)-5-benzyl-12-[4-bromo-3-(trifluoromethyl)benzoyl]-11-methyl-8-oxo-2,3,7,12-tetrazatricyclo[7.4.0.0^2,6]trideca-1(9),3,5-trien-7-yl]pyrazine-2-carboxamide] | < 50 |
| Cc1nn[nH]c1-c1ccc(-n2c(=O)c3c(n4ncc(CC5CCC5)c24)CN(C(=O)c2ccc(Br)c(C(F)(F)F)c2)[C@H](C)C3)cc1 (stereo in doubt) [Compound 76a, rac-(11R)-12-[4-bromo-3-(trifluoromethyl)benzoyl]-5-(cyclobutylmethyl)-11-methyl-7-[4-(4-methyl-1H-triazol-5-yl)phenyl]-2,3,7,12-tetrazatricyclo[7.4.0.0^2,6]trideca-1(9),3,5-trien-8-one] | < 50 |

Source: US11820773B2, “Tricyclic compounds” (ALIGOS THERAPEUTICS, INC., priority 2020, dated 2023)
